The subject of this assay is L1210 leukemia ip in BDF1 mice, survival T/C. Description: NCI In Vivo Anticancer Drug Screen. Data for tumor model L1210 Leukemia (intraperitoneal) in B6D2F1 (BDF1) mice. The following applies: endpoint: mean survival time, higher = longer survival. In short, it runs like this:
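Tumor cells were implanted, animals were treated, and survival was followed. The result divides the treated measurement by the vehicle-control measurement.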

Setting [1] is: dose: 100.0 mg/kg/injection, schedule: Q04DX003 (ip), vehicle: saline.
The mark [2] stands for this setting: dose: 200.0 mg/kg/injection, schedule: Q04DX003 (ip), vehicle: saline.
The mark [3] stands for this setting: dose: 100.0 mg/kg/injection, schedule: Q01DX001 (ip), vehicle: saline with Tween-80.
The mark [4] stands for this setting: dose: 200.0 mg/kg/injection, schedule: Q01DX001 (ip), vehicle: saline with Tween-80.
[5] abbreviates: dose: 400.0 mg/kg/injection, schedule: Q01DX001 (ip), vehicle: saline with Tween-80.
Setting [6] is: dose: 100.0 mg/kg/injection, schedule: Q01DX009 (ip), vehicle: Klucel (hydroxypropylcellulose) (HPC).
[7] abbreviates: dose: 200.0 mg/kg/injection, schedule: Q01DX009 (ip), vehicle: Klucel (hydroxypropylcellulose) (HPC).
Setting [8] is: dose: 100.0 mg/kg/injection, schedule: Q01DX005 (ip), vehicle: saline.
The mark [9] stands for this setting: dose: 200.0 mg/kg/injection, schedule: Q01DX005 (ip), vehicle: saline.
Setting [10] is: dose: 100.0 mg/kg/injection, schedule: Q01DX001 (ip), vehicle: saline.
Setting [11] is: dose: 200.0 mg/kg/injection, schedule: Q01DX001 (ip), vehicle: saline.
Where [12] appears, read: dose: 400.0 mg/kg/injection, schedule: Q01DX001 (ip), vehicle: saline.

We go through 19 compounds from PubChem BioAssay AID248 (DTP/NCI, 2004).

Values joined by “and” are separate entries in the source; they are usually repeats but may differ in a detail not shown here. Equal values may be shown once. Inconclusive results and toxic doses are left out.

For `COC(=O)c1ccncc1`, the T/C reads like this: under setting [1], 101 % of control; under setting [2], 98 % of control; (dose: 400.0 mg/kg/injection, schedule: Q04DX003 (ip), vehicle: saline) 104 % of control.

`CCOc1ccc(N=Cc2cccc([N+](=O)[O-])c2)cc1`: the T/C by setting is: under setting [3], 103 % of control; (dose: 100.0 mg/kg/injection, schedule: Q01DX009 (ip), vehicle: saline with Tween-80) 107 % of control and 90 % of control; under setting [4], 90 % of control; (dose: 200.0 mg/kg/injection, schedule: Q01DX009 (ip), vehicle: saline with Tween-80) 97 % of control and 90 % of control; under setting [5], 99 % of control; (dose: 400.0 mg/kg/injection, schedule: Q01DX009 (ip), vehicle: saline with Tween-80) 100 % of control and 91 % of control.

Turning to `Nc1nnnn1-c1ccccc1-c1ccccc1`, the T/C was 101 % of control under setting [6]; 104 % of control under setting [7]; 114 % of control (dose: 400.0 mg/kg/injection, schedule: Q01DX009 (ip), vehicle: Klucel (hydroxypropylcellulose) (HPC)).

With `C[Se]c1nc2c(=O)[nH]c(N)nc2n1C1OC(CO)C(O)C1O` (centres undefined), the T/C was 107 % of control under setting [8] and 102 % of control under setting [9].

`CCCCN=C(N)c1ccc(S(=O)(=O)N=C(N)N)cc1`: the T/C runs as follows: under setting [10], 97 % of control; under setting [11], 101 % of control; under setting [12], 97 % of control.

On to `COC(=O)C(NC(=O)COc1ccccc1[N+](=O)[O-])C(=O)OC`, for which the T/C runs as follows: under setting [3], 100 % of control; under setting [4], 95 % of control; under setting [5], 97 % of control.

With `O=C(O)CC/C(=N/O)c1ccccc1`, the T/C (dose: 50.0 mg/kg/injection, schedule: Q01DX009 (ip), vehicle: Klucel (hydroxypropylcellulose) (HPC)) was 93 % of control; the T/C under setting [6] was 98 % of control; the T/C under setting [7] was 92 % of control.

Consider `CCCCCCCCCCC(C)c1ccc(S(=O)(=O)O)cc1` (centres undefined), for which the T/C (dose: 100.0 mg/kg/injection, schedule: Q01DX001 (ip), vehicle: saline sonified) was 97 % of control and the T/C (dose: 200.0 mg/kg/injection, schedule: Q01DX001 (ip), vehicle: saline sonified) was 107 % of control.

As for `O=C(CC1C=CCC1)NCc1ccccc1` (centres undefined), the T/C (dose: 75.0 mg/kg/injection, schedule: Q01DX001 (ip), vehicle: saline) was 101 % of control; the T/C (dose: 150.0 mg/kg/injection, schedule: Q01DX001 (ip), vehicle: saline) was 95 % of control; the T/C (dose: 300.0 mg/kg/injection, schedule: Q01DX001 (ip), vehicle: saline) is 93 % of control.

For the compound `NS(=O)(=O)c1c([N+](=O)[O-])ncn1C1OC(COC(=O)c2ccccc2)C(OC(=O)c2ccccc2)C1OC(=O)c1ccccc1` (centres undefined), the T/C under setting [8] is 93 % of control and the T/C under setting [9] was 95 % of control.

For `COc1cc(Br)c(CC2=[N+](C)CCc3cc(OC)c(OCc4ccccc4)cc32)cc1OC`, the T/C is 98 % of control (dose: 100.0 mg/kg/injection, schedule: Q04DX003 (ip), vehicle: saline with Tween-80); 101 % of control (dose: 200.0 mg/kg/injection, schedule: Q04DX003 (ip), vehicle: saline with Tween-80); 101 % of control (dose: 400.0 mg/kg/injection, schedule: Q04DX003 (ip), vehicle: saline with Tween-80).

Consider `O=C(Nc1ccc(C2=NCCN2)cc1)Nc1cccc(C(=O)Nc2ccc(C3=NCCN3)cc2)c1`, for which the T/C (dose: 1.0 mg/kg/injection, schedule: Q01DX Z (ip), vehicle: carboxymethylcellulose (CMC)) is 106 % of control; the T/C (dose: 2.0 mg/kg/injection, schedule: Q01DX Z (ip), vehicle: carboxymethylcellulose (CMC)) was 117 % of control; the T/C (dose: 3.75 mg/kg/injection, schedule: Q01DX Z (ip), vehicle: saline) was 97 % of control; the T/C (dose: 4.0 mg/kg/injection, schedule: Q01DX Z (ip), vehicle: carboxymethylcellulose (CMC)) is 122 % of control; the T/C (dose: 7.5 mg/kg/injection, schedule: Q01DX Z (ip), vehicle: saline) is 100 % of control; the T/C (dose: 8.0 mg/kg/injection, schedule: Q01DX Z (ip), vehicle: carboxymethylcellulose (CMC)) is 150 % of control and 158 % of control. For the same compound, the T/C is 110 % of control (dose: 15.0 mg/kg/injection, schedule: Q01DX Z (ip), vehicle: saline); 225 % of control (dose: 16.0 mg/kg/injection, schedule: Q01DX Z (ip), vehicle: carboxymethylcellulose (CMC)); 154 % of control (dose: 30.0 mg/kg/injection, schedule: Q01DX Z (ip), vehicle: carboxymethylcellulose (CMC)); 250 % of control (dose: 31.0 mg/kg/injection, schedule: Q01DX Z (ip), vehicle: carboxymethylcellulose (CMC)); 207 % of control and 320 % of control (dose: 62.0 mg/kg/injection, schedule: Q01DX Z (ip), vehicle: carboxymethylcellulose (CMC)); 198 % of control (dose: 120.0 mg/kg/injection, schedule: Q01DX Z (ip), vehicle: carboxymethylcellulose (CMC)). In addition, the T/C by setting is: (dose: 120.0 mg/kg/injection, schedule: Q01DX Z (oral), vehicle: saline) 101 % of control; (dose: 125.0 mg/kg/injection, schedule: Q01DX Z (ip), vehicle: carboxymethylcellulose (CMC)) 200 % of control; (dose: 240.0 mg/kg/injection, schedule: Q01DX Z (ip), vehicle: saline) 233 % of control; (dose: 240.0 mg/kg/injection, schedule: Q01DX Z (oral), vehicle: saline) 101 % of control; (dose: 480.0 mg/kg/injection, schedule: Q01DX Z (oral), vehicle: saline) 104 % of control.

Take `FC(F)(F)c1cccc(N2CCN(c3c4c(nc5ccccc35)CCCCC4)CC2)c1`: the T/C by setting is: under setting [10], 93 % of control; under setting [11], 95 % of control; under setting [12], 95 % of control.

`CC(C)CCC1(C)CC(=O)Nc2ccccc21` (centres undefined): the T/C was 97 % of control under setting [10], 94 % of control under setting [11] and 95 % of control under setting [12].

In the case of `CC[N+](C)(C)c1ncnc2nc[nH]c12`, the T/C was 103 % of control (dose: 50.0 mg/kg/injection, schedule: Q01DX009 (ip), vehicle: saline); 95 % of control (dose: 50.0 mg/kg/injection, schedule: Q04DX003 (ip), vehicle: saline); 106 % of control under setting [10]; 110 % of control (dose: 100.0 mg/kg/injection, schedule: Q01DX009 (ip), vehicle: saline); 100 % of control under setting [1]; 111 % of control under setting [11]. Further, under setting [2], the T/C is 96 % of control.

In the case of `NC(N)=Nc1ccc(-c2ccc(N=C(N)N)cc2)cc1`, the T/C is 97 % of control (dose: 12.5 mg/kg/injection, schedule: Q01DX Z (oral), vehicle: saline); 106 % of control (dose: 25.0 mg/kg/injection, schedule: Q01DX Z (oral), vehicle: saline); 101 % of control (dose: 50.0 mg/kg/injection, schedule: Q01DX Z (oral), vehicle: saline); 105 % of control (dose: 100.0 mg/kg/injection, schedule: Q01DX Z (oral), vehicle: saline); 100 % of control (dose: 200.0 mg/kg/injection, schedule: Q01DX Z (oral), vehicle: saline).

In the case of `OCC[N-]CCCN=Cc1ccccc1O.OCC[N-]CCCN=Cc1ccccc1O.[Co+2]`, the T/C (dose: 50.0 mg/kg/injection, schedule: Q01DX001 (ip), vehicle: saline) is 96 % of control and the T/C under setting [10] was 100 % of control.

For `O=C(NCCCl)Nc1ccc(Cl)cc1`, the T/C reads like this: (dose: 100.0 mg/kg/injection, schedule: Q01DX001 (ip), vehicle: Klucel (hydroxypropylcellulose) (HPC)) 104 % of control; (dose: 200.0 mg/kg/injection, schedule: Q01DX001 (ip), vehicle: Klucel (hydroxypropylcellulose) (HPC)) 102 % of control; (dose: 400.0 mg/kg/injection, schedule: Q01DX001 (ip), vehicle: Klucel (hydroxypropylcellulose) (HPC)) 91 % of control.

As to `C1=CC2c3ccccc3C1c1ccccc12`, the T/C runs as follows: (dose: 100.0 mg/kg/injection, schedule: Q01DX009 (sc), vehicle: olive oil, sesame oil, peanut oil) 101 % of control; (dose: 100.0 mg/kg/injection, schedule: Q04DX003 (sc), vehicle: olive oil, sesame oil, peanut oil) 102 % of control; (dose: 200.0 mg/kg/injection, schedule: Q01DX009 (sc), vehicle: olive oil, sesame oil, peanut oil) 103 % of control; (dose: 200.0 mg/kg/injection, schedule: Q04DX003 (sc), vehicle: olive oil, sesame oil, peanut oil) 95 % of control; (dose: 400.0 mg/kg/injection, schedule: Q01DX009 (sc), vehicle: olive oil, sesame oil, peanut oil) 102 % of control; (dose: 400.0 mg/kg/injection, schedule: Q04DX003 (sc), vehicle: olive oil, sesame oil, peanut oil) 93 % of control.
